Measured values as given in patent US11497942B2, “Cosmetic or dermatological preparation comprising a combination of a dye and an anti-inflammatory active ingredient” (BEIERSDORF AG, priority 2003, dated 2022).

Columns and labels:
[1] = Polarity of lipids and oils: interfacial tension towards water; type: physicochemical
Source text: It has already been proposed to adopt interfacial tension towards water as a measure of the polarity index of an oil or of an oil phase. This means that the greater the polarity of the oil phase in question, the lower the interfacial tension between this oil phase and water. According to the invention, the interfacial tension is regarded as being one possible measure of the polarity of a given oil component.

[2] = cited from earlier work

CCCCCCCC(=O)OC(=O)OC(=O)CCCCCCC [Cetiol CC, Dicaprylyl Carbonate]
Polarity ([1]; nonpolar lipids): 31.7 mN/m

Cyclomethicone [DC Fluid 345]
Polarity ([1]; mid-polar lipids): 28.5 mN/m | Polarity ([1]; silicone oils): 28.5 mN/m

Cyclopolydimethylsiloxan [Dow Corning Fluid 244]
Polarity ([1]; mid-polar lipids): 28.5 mN/m

Phenyltrimethicone [Silicone oil VP 1120]
Polarity ([1]; mid-polar lipids): 22.7 mN/m

C=CC(C)(C)c1cc(/C=C/C(=O)c2ccc(O)cc2)c(OC)cc1O [licochalcone A]
solubility [2]: sparingly soluble
